Data from patent publication US11485792B2, “Antibodies, uses thereof and conjugates thereof” (Polytherics Limited, priority 2016, dated 2022).
pIC50: −log10 of the molar value. Like-named read-outs stand apart in the source and are kept apart here. Where a SMILES comes first, the peptide text is derived from it. [ ]: non-standard residue; d: D form. The star is where a group is joined. Dolaproine = CO[C@@H]([C@@H]1CCCN1)[C@@H](C)C(=O)O; Dil = CC[C@H](C)[C@H](NC)[C@@H](CC(=O)O)OC; X1 = C[C@@H](N*)[C@@H](O)c1ccccc1; NMeV = CN[C@H](C(=O)O)C(C)C

Assays:
[1] = system: LNCaP cells; type: cell-based
From the text: (§1) The protocol describes cell seeding, drug treatment and determination of the cell viability in reference to untreated cells based on ATP synthesis, which is directly related to the number of cells present in the well.

[2] = system: PC-3 cells; experiment: In vitro cell viability assay (CellTiter Glo), PC-3 (PSMA-negative control); type: cell-based; conditions: Example 16; PSMA-negative PC-3 (negative control), 96 h
From the text: Loss of tumour cell viability following treatment with cytotoxic drugs or ADCs in vitro can be measured by growing cell lines in the presence of increasing concentrations of drugs or ADCs and quantifying the loss of proliferation or metabolic activity using CellTiter Glo® Luminescence reagent (Promega Corp. Technical Bulletin TB288; Lewis Phillips G. D, Cancer Res 2008; 68:9280-9290). The protocol describes cell seeding, drug treatment and determination of the cell viability in reference to untreated cells based on ATP synthesis, which is directly related to the number of cells present in the well.
PSMA-positive LNCaP (clone FGC) and C4-2 cells, as well as PSMA-negative PC-3 cells were detached with TrypLE and resuspended in complete medium. Cells were counted using disposable Neubauer counting chambers and cell density adjusted to 10×10^4 cells/mL for LNCaP, 2×10^4 cells/mL for C4-2 and 1×10^4 cells/mL for PC-3 respectively. […]
The cell viability assay was carried out using the Cell-Titer Glo® Luminescence reagent, as described by the manufacturer's instructions, (Promega Corp. Technical Bulletin TB288; Lewis Phillips G. D, Cancer Res 2008; 68:9280-9290). Luminescence was recorded using a plate reader (e.g. Molecular Devices Spectramax M3 plate reader), and data subsequently analysed using a four parameter non-linear regression model. […]

[3] = system: C4-2 cells; experiment: In vitro cell viability assay (CellTiter Glo), C4-2; type: cell-based, human; conditions: Example 16; PSMA-positive C4-2, 96 h
From the text: as §1

[4] = Heat stress test with SEC analysis of aggregation; type: physicochemical
Experimental: Antibody samples (0.5 mg/mL in PBS) were incubated at 75° C. for 30 min followed by incubation in an ice-bath for 5 min prior to being analysed for their extent of aggregation. Analysis of antibody solutions was carried out by Size Exclusion Chromatography (SEC) and by turbidity measurements.
SEC was performed using a TOSOH Bioscience TSK gel Super SW 3000 column. UV absorbance at 280 nm was monitored during an isocratic elution with a 0.2 M Potassium phosphate buffer, pH 6.8 (0.2 M potassium chloride and 15% isopropanol). The elution times and number of peaks indicate whether the sample contains aggregated, degraded or native antibody. The % area under the curve (Abs280) was used to determine the quantity of each species present in the SEC analysis.

[5] = post stress test: 0.5 mg/mL in PBS, 75° C. for 30 min, then ice-bath 5 min, SEC

Compound | pIC50 ([1]; Example 16, PSMA-positive LNCaP, 96 h) | pIC50 [2] | pIC50 [3] | pIC50 ([1]; Example 14, LNCaP, 96 h incubation) | Ab in aggregated form (%) [4, 5] [%] | Ab in native conformation (%) [4, 5] [%] | stability in heat stress SEC analysis (in words) ([4]; propensity to aggregate upon heating and cooling)
COc1cc2cc(c1Cl)N(C)C(=O)C[C@H](OC(=O)[C@H](C)N(C)C(=O)CCCCCN)[C@]1(C)O[C@H]1[C@H](C)[C@@H]1C[C@@](O)(NC(=O)O1)[C@H](OC)/C=C/C=C(\C)C2 [AHX-DM1] | 6.47 | < 6.00 | 7.24 | – | – | – | –
CC[C@H](C)[C@@H]([C@@H](CC(=O)N1CCC[C@H]1[C@H](OC)[C@@H](C)C(=O)N[C@H](C)[C@@H](O)c1ccccc1)OC)N(C)C(=O)[C@@H](NC(=O)[C@@H](NC)C(C)C)C(C)C [MMAE] (H-[NMeV]V[Dil][Dolaproine]-X1) | – | 8.09 | 9.55 | 9.09 | – | – | –
AB-22: de-immunised J591 anti-PSMA antibody, SEQ ID No 25 and 26; prior art comparator | – | – | – | – | 100 | 0 | less stable than AB-03
